These compounds were tested against T1, Histone-lysine N-methyltransferase NSD2 (Homo sapiens, UniProt O96028) (assay: Inhibition of recombinant human N-terminal GST-tagged NSD2 CD (941 to 1240 residues) expressed in Escherichia coli using SAM as substrate in presence of nucleosomes by AlphaLISA method).
T1 sequence (O96028 whole entry): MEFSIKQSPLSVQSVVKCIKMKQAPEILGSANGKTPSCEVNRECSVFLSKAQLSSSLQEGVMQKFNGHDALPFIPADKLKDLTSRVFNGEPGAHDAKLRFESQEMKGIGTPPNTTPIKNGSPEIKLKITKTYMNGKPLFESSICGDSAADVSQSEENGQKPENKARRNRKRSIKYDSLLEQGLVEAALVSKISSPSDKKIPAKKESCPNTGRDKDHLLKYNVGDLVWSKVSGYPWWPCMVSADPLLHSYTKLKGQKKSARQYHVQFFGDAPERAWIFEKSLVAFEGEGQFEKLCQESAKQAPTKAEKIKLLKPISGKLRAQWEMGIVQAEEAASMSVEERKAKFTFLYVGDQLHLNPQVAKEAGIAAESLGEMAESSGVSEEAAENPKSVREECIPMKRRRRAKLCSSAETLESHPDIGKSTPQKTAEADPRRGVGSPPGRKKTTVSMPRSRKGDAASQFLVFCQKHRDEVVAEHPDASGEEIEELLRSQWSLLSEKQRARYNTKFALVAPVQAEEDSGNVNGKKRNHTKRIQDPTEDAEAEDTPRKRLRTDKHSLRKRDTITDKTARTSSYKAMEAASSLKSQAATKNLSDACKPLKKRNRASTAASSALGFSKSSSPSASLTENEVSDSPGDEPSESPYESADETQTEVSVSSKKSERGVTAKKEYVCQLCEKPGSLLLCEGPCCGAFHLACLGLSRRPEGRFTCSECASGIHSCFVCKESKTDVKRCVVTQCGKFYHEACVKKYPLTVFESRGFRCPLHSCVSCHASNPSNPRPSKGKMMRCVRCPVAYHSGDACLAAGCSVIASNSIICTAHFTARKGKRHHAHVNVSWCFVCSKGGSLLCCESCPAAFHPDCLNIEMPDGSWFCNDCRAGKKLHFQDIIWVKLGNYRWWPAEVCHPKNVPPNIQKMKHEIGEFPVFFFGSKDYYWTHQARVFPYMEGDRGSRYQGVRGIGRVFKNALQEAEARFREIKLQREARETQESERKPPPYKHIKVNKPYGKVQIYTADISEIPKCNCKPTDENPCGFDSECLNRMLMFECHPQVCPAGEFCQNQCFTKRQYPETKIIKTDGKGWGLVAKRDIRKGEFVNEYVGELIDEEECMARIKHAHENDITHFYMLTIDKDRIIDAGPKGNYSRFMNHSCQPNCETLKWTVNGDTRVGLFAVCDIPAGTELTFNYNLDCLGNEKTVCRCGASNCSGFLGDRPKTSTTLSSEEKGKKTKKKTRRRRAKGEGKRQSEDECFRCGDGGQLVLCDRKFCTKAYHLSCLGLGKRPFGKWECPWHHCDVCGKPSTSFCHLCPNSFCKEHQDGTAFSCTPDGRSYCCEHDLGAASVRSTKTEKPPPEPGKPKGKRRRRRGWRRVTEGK

`O=S(=O)(NCc1ccccc1)c1cccc2c(NCC3CC3)cccc12` and `O=S(=O)(NCc1ccccc1)c1cccc2c(NC3CCCCC3)cccc12` are within 1.5-fold of each other in IC50: 10.7 µM for the first, 12.6 µM for the second.

`Nc1cccc2c(C(=O)NCc3ccccc3)cccc12` and `O=C(NCc1ccccc1)c1cccc2ncccc12` are within 1.5-fold of each other in IC50: 19.4 µM for the first, 19.6 µM for the second.

`Nc1cccc2c(S(=O)(=O)N3CCC(Cc4ccccc4)CC3)cccc12` and `CN(Cc1ccccc1)S(=O)(=O)c1cccc2c(N)cccc12` cannot be ordered by IC50: greater than 20 µM for the first, greater than 20 µM for the second.

`Nc1cccc2c(S(=O)(=O)NCc3ccc(C(F)(F)F)cc3)cccc12` and `Nc1cccc2c(S(=O)(=O)NCc3ccc(F)cc3)cccc12` are within 1.5-fold of each other in IC50: 10.4 µM for the first, 14.1 µM for the second.

Going from `CN1CCC(CNS(=O)(=O)c2cccc3c(N)cccc23)CC1` to `Nc1cccc2c(S(=O)(=O)NCC3CCCCC3)cccc12`, the IC50 rises from 3.4 µM to greater than 20 µM. The first is the more potent here.

`CC(C)(C)NS(=O)(=O)c1cccc2c(N)cccc12` and `Nc1cccc2c(S(=O)(=O)NCc3cccs3)cccc12` are within 1.5-fold of each other in IC50: 18.4 µM for the first, 22.7 µM for the second.

Compared with `Nc1cccc2c(S(=O)(=O)Nc3ccccc3)cccc12`, `Nc1cccc2c(S(=O)(=O)NCCc3ccccc3)cccc12` is lower in IC50: greater than 20 µM for the first, 15.4 µM for the second. The second is the more potent here.

Compared with `Nc1cccc2c(S(=O)(=O)NC3CC3c3ccccc3)cccc12` (trans isomer), `Nc1ccc(S(=O)(=O)NCc2ccccc2)c2ccccc12` is higher in IC50: 19.9 µM for the first, greater than 20 µM for the second.

`CC(=O)Nc1cccc2c(S(=O)(=O)NCc3ccccc3)cccc12` and `CN(C)c1cccc2c(S(=O)(=O)NCc3ccccc3)cccc12` cannot be ordered by IC50: greater than 20 µM for the first, greater than 20 µM for the second.

First: Nc1cccc2c(S(=O)(=O)NCc3ccc(C(=O)O)cc3)cccc12
Second: COc1ccc(CNS(=O)(=O)c2cccc3c(N)cccc23)cc1
The IC50 of the first is higher: greater than 20 µM for the first, 13.5 µM for the second.

First: CN1CCC(Nc2cccc3c(S(=O)(=O)NCc4ccccc4)cccc23)CC1
Second: CCN1CCC(Nc2cccc3c(S(=O)(=O)NCc4ccccc4)cccc23)CC1
The IC50 of the first is 1.9-fold higher: 6 µM for the first, 3.2 µM for the second. The second is the more potent here.

`O=S(=O)(NCc1ccccc1)c1cccc2c(NC3CCNCC3)cccc12` and `CC(=O)N1CCC(Nc2cccc3c(S(=O)(=O)NCc4ccccc4)cccc23)CC1` are within 1.5-fold of each other in IC50: 10.2 µM for the first, 7.5 µM for the second.

Going from `N#Cc1cccc(CNS(=O)(=O)c2cccc3c(N)cccc23)c1` to `N#Cc1ccc(CNS(=O)(=O)c2cccc3c(N)cccc23)cc1`, the IC50 falls from greater than 20 µM to 18.1 µM.

`Nc1ccc2cc(S(=O)(=O)NCc3ccccc3)ccc2c1` and `Nc1cccc2cc(S(=O)(=O)NCc3ccccc3)ccc12` cannot be ordered by IC50: greater than 20 µM for the first, greater than 20 µM for the second.

`O=S(=O)(NCc1ccccc1)c1cccc2ccccc12` and `Nc1ccc2c(S(=O)(=O)NCc3ccccc3)cccc2c1` cannot be ordered by IC50: greater than 20 µM for the first, greater than 20 µM for the second.

`Nc1cccc2c(S(=O)(=O)NCC3CCCNC3)cccc12` (centres undefined) and `Nc1cccc2c(S(=O)(=O)NCc3ccncc3)cccc12` cannot be ordered by IC50: greater than 20 µM for the first, 26 µM for the second.

First: O=C(OCc1ccccc1)N1CCC(Nc2cccc3c(S(=O)(=O)NCc4ccccc4)cccc23)CC1
Second: O=C(c1ccccc1)N1CCC(Nc2cccc3c(S(=O)(=O)NCc4ccccc4)cccc23)CC1
The IC50 of the first is higher: greater than 20 µM for the first, 18 µM for the second.

Going from `CS(=O)(=O)N1CCC(Nc2cccc3c(S(=O)(=O)NCc4ccccc4)cccc23)CC1` to `O=C(NCc1ccccc1)c1cccc2[nH]ccc12`, the IC50 rises from 11.8 µM to greater than 20 µM.

What follows are compounds tested against T1, Histone-lysine N-methyltransferase NSD2 (assay: Binding affinity to MMSET (973 to 1203 residues) (unknown origin) expressed in Escherichia coli BL21 DE3 by ITC analysis).

For `CCC(C)NC(CC[C@H](N)C(=O)O)C[C@H]1O[C@@H](n2cnc3c(N)ncnc32)[C@H](O)[C@@H]1O` (some centres undefined), the Kd was 1.6 µM.

These compounds were tested against T1, Histone-lysine N-methyltransferase NSD2 (assay: Inhibition of NSD2 (unknown origin)).

Going from `NNc1nc2ccccc2nc1S` to `O=C1O[C@@H](C(=O)N2CCN(Cc3nc4sc5c(c4c(=O)[nH]3)CCCC5)CC2)Cc2ccccc21`, the IC50 rises from 3 µM to 11.2 µM (3.7-fold).

`Nc1ncnc2c1ncn2[C@@H]1O[C@H](CC(N)CC[C@H](N)C(=O)O)[C@@H](O)[C@H]1O` (some centres undefined) was tested, and the IC50 was 26 µM.

What follows are compounds tested against T1, Histone-lysine N-methyltransferase NSD2 (assay: Inhibition of human NSD2-SET using histone H3.1 as substrate incubated for 1 hr by Western blot analysis).

In the case of `COc1cc2nc(N3CCN(C)CC3)nc(NC3CCN(Cc4ccccc4)CC3)c2cc1OC`, the IC50 is reported as 41 µM.

The compounds below were run against Histone-lysine N-methyltransferase, H3 lysine-36 specific (Homo sapiens, UniProt Q96L73) (assay: Inhibition of human NSD1-SET using histone H3.1 as substrate incubated for 1 hr by Western blot analysis).
Chain of Histone-lysine N-methyltransferase, H3 lysine-36 specific (Q96L73 whole entry): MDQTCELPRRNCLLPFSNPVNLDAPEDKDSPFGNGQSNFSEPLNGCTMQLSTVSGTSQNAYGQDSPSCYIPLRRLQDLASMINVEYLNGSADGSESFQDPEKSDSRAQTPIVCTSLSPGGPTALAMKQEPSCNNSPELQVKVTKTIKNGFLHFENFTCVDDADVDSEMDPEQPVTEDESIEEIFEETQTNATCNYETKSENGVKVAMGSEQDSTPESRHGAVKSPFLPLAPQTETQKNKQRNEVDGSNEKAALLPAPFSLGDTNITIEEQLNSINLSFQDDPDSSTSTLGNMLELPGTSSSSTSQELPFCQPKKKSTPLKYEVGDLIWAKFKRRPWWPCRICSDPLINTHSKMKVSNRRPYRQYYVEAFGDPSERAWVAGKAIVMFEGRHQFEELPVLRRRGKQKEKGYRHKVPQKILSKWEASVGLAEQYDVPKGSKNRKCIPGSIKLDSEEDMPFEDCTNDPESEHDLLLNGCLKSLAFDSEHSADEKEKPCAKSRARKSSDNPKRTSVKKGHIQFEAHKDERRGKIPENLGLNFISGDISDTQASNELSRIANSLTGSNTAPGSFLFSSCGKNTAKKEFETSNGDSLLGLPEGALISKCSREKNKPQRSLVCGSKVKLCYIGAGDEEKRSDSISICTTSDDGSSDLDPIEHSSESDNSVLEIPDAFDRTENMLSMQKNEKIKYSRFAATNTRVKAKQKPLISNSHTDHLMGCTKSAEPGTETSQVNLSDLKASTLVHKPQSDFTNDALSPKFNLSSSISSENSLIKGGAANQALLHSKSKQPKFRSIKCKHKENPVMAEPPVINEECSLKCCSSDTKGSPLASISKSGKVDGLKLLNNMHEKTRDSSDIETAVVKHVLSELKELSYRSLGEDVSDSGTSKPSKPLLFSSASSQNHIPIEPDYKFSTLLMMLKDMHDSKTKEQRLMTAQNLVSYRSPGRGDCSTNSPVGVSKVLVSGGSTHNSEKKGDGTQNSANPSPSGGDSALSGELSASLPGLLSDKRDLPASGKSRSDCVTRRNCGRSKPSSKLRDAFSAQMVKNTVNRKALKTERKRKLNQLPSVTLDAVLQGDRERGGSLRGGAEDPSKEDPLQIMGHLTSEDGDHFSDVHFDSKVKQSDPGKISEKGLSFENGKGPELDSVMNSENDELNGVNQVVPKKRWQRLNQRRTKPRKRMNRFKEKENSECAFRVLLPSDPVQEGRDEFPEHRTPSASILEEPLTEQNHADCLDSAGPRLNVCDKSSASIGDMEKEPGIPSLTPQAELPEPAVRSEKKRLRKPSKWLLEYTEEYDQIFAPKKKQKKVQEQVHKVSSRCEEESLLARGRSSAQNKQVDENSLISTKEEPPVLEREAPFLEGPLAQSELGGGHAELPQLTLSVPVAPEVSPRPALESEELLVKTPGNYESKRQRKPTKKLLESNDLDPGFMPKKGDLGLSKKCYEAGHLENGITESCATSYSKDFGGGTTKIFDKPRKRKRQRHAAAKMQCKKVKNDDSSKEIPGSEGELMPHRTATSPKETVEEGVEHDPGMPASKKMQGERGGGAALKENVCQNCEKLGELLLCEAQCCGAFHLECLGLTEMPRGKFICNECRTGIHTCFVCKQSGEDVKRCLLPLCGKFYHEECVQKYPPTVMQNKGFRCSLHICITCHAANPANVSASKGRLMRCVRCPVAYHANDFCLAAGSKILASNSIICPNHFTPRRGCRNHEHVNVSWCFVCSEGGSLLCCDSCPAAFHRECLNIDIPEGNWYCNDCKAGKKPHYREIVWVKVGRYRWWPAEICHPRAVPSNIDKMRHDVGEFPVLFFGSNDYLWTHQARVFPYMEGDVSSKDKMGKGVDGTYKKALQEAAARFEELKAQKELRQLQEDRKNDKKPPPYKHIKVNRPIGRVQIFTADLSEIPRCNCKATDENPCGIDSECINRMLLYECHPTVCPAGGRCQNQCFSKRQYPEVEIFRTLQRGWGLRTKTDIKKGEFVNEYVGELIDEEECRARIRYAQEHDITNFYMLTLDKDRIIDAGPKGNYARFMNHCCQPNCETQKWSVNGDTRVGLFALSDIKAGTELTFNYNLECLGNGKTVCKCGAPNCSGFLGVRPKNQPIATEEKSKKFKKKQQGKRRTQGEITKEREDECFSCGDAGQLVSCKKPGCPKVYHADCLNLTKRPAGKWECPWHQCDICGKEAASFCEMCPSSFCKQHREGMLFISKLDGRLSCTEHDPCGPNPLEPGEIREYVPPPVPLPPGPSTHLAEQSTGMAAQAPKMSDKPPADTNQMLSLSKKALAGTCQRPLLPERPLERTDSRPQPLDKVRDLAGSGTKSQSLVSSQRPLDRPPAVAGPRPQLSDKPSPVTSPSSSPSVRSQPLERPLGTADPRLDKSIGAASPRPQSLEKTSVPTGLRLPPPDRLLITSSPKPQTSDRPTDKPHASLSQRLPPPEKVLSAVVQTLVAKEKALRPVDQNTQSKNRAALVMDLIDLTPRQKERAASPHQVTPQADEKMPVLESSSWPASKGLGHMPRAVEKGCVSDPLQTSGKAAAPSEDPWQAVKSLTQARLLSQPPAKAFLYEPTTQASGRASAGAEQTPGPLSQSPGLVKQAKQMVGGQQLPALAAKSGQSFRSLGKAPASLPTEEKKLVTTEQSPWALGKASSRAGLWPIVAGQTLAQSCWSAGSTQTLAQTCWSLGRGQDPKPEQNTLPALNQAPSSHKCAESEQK

`COc1cc2nc(N3CCN(C)CC3)nc(NC3CCN(Cc4ccccc4)CC3)c2cc1OC` was tested, and the IC50 was 112 µM.

Each compound was assayed against Histone-lysine N-methyltransferase NSD3 (Homo sapiens, UniProt Q9BZ95) (assay: Inhibition of human NSD3-SET using histone H3.1 as substrate incubated for 1 hr by Western blot analysis).
Chain of Histone-lysine N-methyltransferase NSD3 (Q9BZ95 whole entry): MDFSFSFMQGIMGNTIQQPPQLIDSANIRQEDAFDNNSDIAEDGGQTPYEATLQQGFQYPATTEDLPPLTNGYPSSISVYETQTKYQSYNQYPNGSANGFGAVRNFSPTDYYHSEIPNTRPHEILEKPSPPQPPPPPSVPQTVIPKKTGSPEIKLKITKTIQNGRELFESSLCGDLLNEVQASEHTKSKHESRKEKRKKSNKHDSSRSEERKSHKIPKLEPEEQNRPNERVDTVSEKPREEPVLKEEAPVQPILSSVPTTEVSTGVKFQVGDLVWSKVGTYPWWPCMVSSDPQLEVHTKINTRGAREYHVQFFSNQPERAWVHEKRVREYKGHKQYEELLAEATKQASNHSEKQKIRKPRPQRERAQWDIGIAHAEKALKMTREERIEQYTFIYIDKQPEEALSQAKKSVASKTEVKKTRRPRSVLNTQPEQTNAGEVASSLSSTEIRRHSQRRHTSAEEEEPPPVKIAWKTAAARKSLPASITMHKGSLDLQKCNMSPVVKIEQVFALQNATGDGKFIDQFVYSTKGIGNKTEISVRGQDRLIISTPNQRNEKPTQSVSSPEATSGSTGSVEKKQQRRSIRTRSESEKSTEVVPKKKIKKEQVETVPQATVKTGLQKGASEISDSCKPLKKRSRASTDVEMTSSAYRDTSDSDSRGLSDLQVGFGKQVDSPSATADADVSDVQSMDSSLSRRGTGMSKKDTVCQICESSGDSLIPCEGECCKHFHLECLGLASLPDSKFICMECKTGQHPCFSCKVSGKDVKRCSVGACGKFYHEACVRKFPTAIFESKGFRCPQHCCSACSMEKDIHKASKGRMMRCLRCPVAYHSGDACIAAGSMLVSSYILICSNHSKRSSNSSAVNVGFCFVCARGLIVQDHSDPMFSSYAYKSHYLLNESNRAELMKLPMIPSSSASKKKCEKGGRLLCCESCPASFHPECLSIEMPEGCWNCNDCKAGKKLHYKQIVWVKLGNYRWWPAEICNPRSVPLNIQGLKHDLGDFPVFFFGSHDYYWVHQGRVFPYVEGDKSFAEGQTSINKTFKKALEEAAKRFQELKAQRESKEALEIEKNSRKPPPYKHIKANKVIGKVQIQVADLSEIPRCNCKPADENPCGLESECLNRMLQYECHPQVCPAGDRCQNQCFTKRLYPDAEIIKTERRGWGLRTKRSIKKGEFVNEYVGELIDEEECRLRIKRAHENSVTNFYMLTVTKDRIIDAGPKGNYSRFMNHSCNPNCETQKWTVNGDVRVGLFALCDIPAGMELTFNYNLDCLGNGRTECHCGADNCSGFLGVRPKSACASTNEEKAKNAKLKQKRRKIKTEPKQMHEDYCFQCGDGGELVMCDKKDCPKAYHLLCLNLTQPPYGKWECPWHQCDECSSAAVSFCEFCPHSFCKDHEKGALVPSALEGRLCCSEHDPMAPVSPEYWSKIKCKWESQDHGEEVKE

Work on `COc1cc2nc(N3CCN(C)CC3)nc(NC3CCN(Cc4ccccc4)CC3)c2cc1OC` yielded an IC50 of 95 µM.

These compounds were tested against T1, Histone-lysine N-methyltransferase NSD2 (assay: Inhibition of NSD2 (953 to 1240 residues) (unknown origin) using SAM as substrate in presence of nucleosome by AlphaScreen assay).

In the case of `CCC(C)NC(CC[C@H](N)C(=O)O)C[C@H]1O[C@@H](n2cnc3c(N)ncnc32)[C@H](O)[C@@H]1O` (some centres undefined), the IC50 is reported as 3.3 µM.

From ChEMBL document CHEMBL4825702, “5-Aminonaphthalene derivatives as selective nonnucleoside nuclear receptor binding SET domain-protein 2 (NSD2) inhibitors for the treatment of multiple myeloma” (Eur J Med Chem, 2021)
